{"source": "patent US9157104B2", "about": "“Method to improve phosphate solubilization in plants” (Consiglio Nazionale delle Ricerche, priority 2009, dated 2015)", "key": {"[1]": {"test_system": "S. meliloti 1021", "experiment": "Microarray gene expression of 1021 cells treated with 0.5 mM compound;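 note: cells were harvested 3 h after the start of each treatment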", "settings": "P-sufficient (13 mM)", "experimental": "For P starvation experiments, cells of 1021 wild-type and RD64 strains were grown at 30° C. to mid exponential phase (OD600=0.6) in RMM broth containing 1% (w/v) mannitol as carbon source and 13 mM P, washed with RMM containing 0 P, resuspended in the same medium and then divided into three cultures. No P (−P), 1.0 mM P (P-starved cells) or 13 mM P (+P cells also named P-sufficient cells) was added into the three cultures, respectively. The P-starved and P-sufficient 1021 wild type cells were treated for 3.0 hours with 0.5 mM IAA. […] To rule out that this bacteria could be partially starved for Trp, RD64 cells were also treated with 0.5 mM Trp and used for microarrays and RT-PCR analyses. […] After 3 hours of each treatment, cell batches were collected, freezed and stored at −80° C. for use in experiments."}, "[2]": {"test_system": "pho operon genes in S. meliloti cells", "experiment": "Quantitative RT-PCR analysis of pho operon genes", "format": "cell-based", "settings": "P-sufficient (13 mM K-phosphate); vs untreated 1021 cells; compounds 0.5 mM, 3 hours", "description": "FIG. S1. Quantitative RT-PCR analysis of pho operon genes in S. meliloti cells under P-sufficient conditions (13 mM K-phosphate). The relative expression level was >1 for genes more highly expressed in RD64 and in 1021 cells treated for 3 hours with 0.5 mM IAA, Ind, Trp, ICA and 2,4-D. The relative expression level was <1 for genes more highly expressed in 1021 cells (control). Error bars represent the standard deviation from three independent biological experiments.\nFIG. 1. Quantitative RT-PCR analysis of pho operon genes expression in S. meliloti cells under P-starving conditions. The relative expression level was >1 for genes more highly expressed in RD64 and in 1021 cells treated for 3 hours with 0.5 mM IAA, Ind, Trp, ICA and 2,4-D. The relative expression level was <1 for genes more highly expressed in 1021 cells (control). Error bars represent the standard deviation from five independent biological experiments (p<0.05).\nTotal RNA from P-sufficient and P-starved cells was isolated as previously described (5). cDNA were synthesized with the StrataScript™ reverse transcription reagents (Stratagene) and random hexamers as primers. Quantitative PCR was performed with the Power SYBR PCR Master Mix (Applied Biosystems). Reactions were run on the iCycler iQ (Bio-Rad). The thermo cycling condition were: 15 min at 95° C., 40 cycles of denaturation at 95° C. for 20 s, annealing (20 s) and extension (35 s) at 72° C. Specific primer pairs, designed using the Primer3 software, are shown.\nsmc02641 and smc00128 were used as housekeeping genes for data normalization in the comparative Ct method as previously described (8). Phosphatase Activity"}, "[3]": {"experiment": "Soluble phosphate release into bacterial free medium containing 5% PR", "settings": "sterilized medium, level comparable to that released during Mt-RD64 plant growth (115.2 mg/l)", "text": "FIG. 4. Changes in soluble phosphate release into the bacterial free medium containing 5% phosphate rock (PR) as P source (P-limiting conditions for bacteria growing in a minimal media with PR). […] The amounts of each added organic acids derived from the data obtained in HPLC analysis and were reported in the Material and Methods section. Data are the mean±SD of five independent biological experiments (p<0.006). The concentration of soluble phosphate was estimated using a modification of Fiske and Subarrow method as described by […] et al. (37). […] Bacterial free medium was also treated with 0.5 mM IAA solution. A media that simulates growth is a media without bacteria or their supernatant. The media comprises only RP and the organic acids used as purified powder commercially available (SIGMA), the organic acids concentration used are that produced by the bacteria when grown in a defined media (with IAA, or without, or from RFD64)."}}}
{"smiles": "O=C(O)COc1ccc(Cl)cc1Cl", "note": "[2,4-D, 2,4-dichlorophenoxyacetic acid]", "values": [{"measurement": "pho genes among those significantly affected (microarray)", "setting": "[1]; 1021 + 0.5 mM compound vs untreated 1021", "value": "did not find any pho genes"}, {"measurement": "M (log2 ratio of intensities) SMa1077 nex18", "setting": "[1]; 1021 + 2,4-D vs untreated 1021", "value": 2.581}, {"measurement": "M (log2 ratio of intensities) SMa1128 degP4", "setting": "[1]; 1021 + 2,4-D vs untreated 1021", "value": 1.552}, {"measurement": "M (log2 ratio of intensities) SMb21221 smb21221", "setting": "[1]; 1021 + 2,4-D vs untreated 1021", "value": 1.027}, {"measurement": "M (log2 ratio of intensities) SMc00151 gph1", "setting": "[1]; 1021 + 2,4-D vs untreated 1021", "value": "−0.8713"}, {"measurement": "M (log2 ratio of intensities) SMc00335 rpsA", "setting": "[1]; 1021 + 2,4-D vs untreated 1021", "value": "−0.7145"}, {"measurement": "M (log2 ratio of intensities) SMc00363 rpm1", "setting": "[1]; 1021 + 2,4-D vs untreated 1021", "value": "−0.8021"}, {"measurement": "M (log2 ratio of intensities) SMc00591 smc00591", "setting": "[1]; 1021 + 2,4-D vs untreated 1021", "value": 0.8629}, {"measurement": "M (log2 ratio of intensities) SMc00869 atpF2", "setting": "[1]; 1021 + 2,4-D vs untreated 1021", "value": "−1.318"}, {"measurement": "M (log2 ratio of intensities) SMc00912 groES1", "setting": "[1]; 1021 + 2,4-D vs untreated 1021", "value": "−1.272"}, {"measurement": "M (log2 ratio of intensities) SMc01214 smc01214", "setting": "[1]; 1021 + 2,4-D vs untreated 1021", "value": "−1.039"}, {"measurement": "M (log2 ratio of intensities) SMc01291 rpmD", "setting": "[1]; 1021 + 2,4-D vs untreated 1021", "value": "−0.9964"}, {"measurement": "M (log2 ratio of intensities) SMc01298 rplX", "setting": "[1]; 1021 + 2,4-D vs untreated 1021", "value": "−1.26"}, {"measurement": "M (log2 ratio of intensities) SMc01299 rplN", "setting": "[1]; 1021 + 2,4-D vs untreated 1021", "value": "−1.587"}, {"measurement": "M (log2 ratio of intensities) SMc01300 rpsQ", "setting": "[1]; 1021 + 2,4-D vs untreated 1021", "value": "−0.9524"}, {"measurement": "M (log2 ratio of intensities) SMc01301 rpmC", "setting": "[1]; 1021 + 2,4-D vs untreated 1021", "value": "−2.007"}, {"measurement": "M (log2 ratio of intensities) SMc01319 rplJ", "setting": "[1]; 1021 + 2,4-D vs untreated 1021", "value": "−1.788"}, {"measurement": "M (log2 ratio of intensities) SMc01326 tufB", "setting": "[1]; 1021 + 2,4-D vs untreated 1021", "value": "−1.664"}, {"measurement": "M (log2 ratio of intensities) SMc01858 smc01858", "setting": "[1]; 1021 + 2,4-D vs untreated 1021", "value": "−1.083"}, {"measurement": "M (log2 ratio of intensities) SMc01883 smc01883", "setting": "[1]; 1021 + 2,4-D vs untreated 1021", "value": "−0.8788"}, {"measurement": "M (log2 ratio of intensities) SMc02340 smc02340", "setting": "[1]; 1021 + 2,4-D vs untreated 1021", "value": "−1.408"}, {"measurement": "M (log2 ratio of intensities) SMc02498 atpH", "setting": "[1]; 1021 + 2,4-D vs untreated 1021", "value": "−1.251"}, {"measurement": "M (log2 ratio of intensities) SMc02692 rplY", "setting": "[1]; 1021 + 2,4-D vs untreated 1021", "value": "−0.8486"}, {"measurement": "M (log2 ratio of intensities) SMc02717 leuA1", "setting": "[1]; 1021 + 2,4-D vs untreated 1021", "value": "−0.8087"}, {"measurement": "M (log2 ratio of intensities) SMc02905 dnaX", "setting": "[1]; 1021 + 2,4-D vs untreated 1021", "value": "−0.7264"}, {"measurement": "M (log2 ratio of intensities) SMc03805 tesB", "setting": "[1]; 1021 + 2,4-D vs untreated 1021", "value": 0.9991}, {"measurement": "M (log2 ratio of intensities) SMc03859 rpsP", "setting": "[1]; 1021 + 2,4-D vs untreated 1021", "value": "−0.7104"}, {"measurement": "M (log2 ratio of intensities) SMc03979 gap", "setting": "[1]; 1021 + 2,4-D vs untreated 1021", "value": "−1.065"}, {"measurement": "M (log2 ratio of intensities) SMc04003 rpmJ", "setting": "[1]; 1021 + 2,4-D vs untreated 1021", "value": "−1.331"}, {"measurement": "phoB regulatory gene expression (qRT-PCR)", "setting": "[2]", "value": "unaffected"}]}
{"smiles": "O=C(O)CCC(O)C(=O)O", "note": "(stereo not shown) [2-hydroxyglutaric acid]", "values": [{"measurement": "P solubilization upon exogenous addition of 2-hydroxyglutaric acid", "setting": "[3]", "value": "highest"}]}
